Source: PubChem BioAssay AID244 (DTP/NCI, 2004)
Values joined by “and” are separate entries in the source; they are usually repeats but may differ in a detail not shown here. Equal entries are not always repeated. Inconclusive results are not listed.

System: CD2F1 mice, Lymphoma 8 ip, survival T/C
Test: NCI In Vivo Anticancer Drug Screen. Data for tumor model Lymphoma 8 (intraperitoneal) in CD2F1 (CDF1) mice
Settings: higher = longer survival
Procedure: The antitumor activity of compounds was measured in mice bearing transplantable tumors. Survival or tumor size were measured and the results are expressed as the measurement made in the treated group (T) divided by the measurement made in the vehicle treated control group (C). The tumor model used in this assay is Lymphoma 8 (intraperitoneal) in CD2F1 (CDF1) mice

[1] = endpoint: median survival time, dose: 50.0 mg/kg/injection, schedule: Q01DX009 (ip), vehicle: saline
[2] = endpoint: median survival time, dose: 100.0 mg/kg/injection, schedule: Q01DX009 (ip), vehicle: saline
[3] = endpoint: median survival time, dose: 100.0 mg/kg/injection, schedule: Q01DX005 (ip), vehicle: water
[4] = endpoint: median survival time, dose: 200.0 mg/kg/injection, schedule: Q01DX005 (ip), vehicle: water
[5] = endpoint: median survival time, dose: 400.0 mg/kg/injection, schedule: Q01DX005 (ip), vehicle: water
[6] = endpoint: median survival time, dose: 800.0 mg/kg/injection, schedule: Q01DX005 (ip), vehicle: water

Nc1ncnc2[nH]ncc12
T/C (endpoint: survival time, mean or median, dose: 1.5 mg/kg/injection, schedule: Q01DX010 (ip), vehicle: saline): 90 % of control and 95 % of control
T/C (endpoint: survival time, mean or median, dose: 3.0 mg/kg/injection, schedule: Q01DX010 (ip), vehicle: saline): 100 % of control
T/C (endpoint: survival time, mean or median, dose: 6.0 mg/kg/injection, schedule: Q01DX010 (ip), vehicle: saline): 90 % of control and 95 % of control
T/C (endpoint: survival time, mean or median, dose: 12.0 mg/kg/injection, schedule: Q01DX010 (ip), vehicle: saline): 90 % of control

NC(=O)C(F)(F)C(N)C(=O)O (configuration not stated)
T/C [1]: 88 % of control
T/C [2]: 88 % of control

O=c1[nH]cc(F)c(=O)[nH]1
T/C (endpoint: median survival time, dose: 13.0 mg/kg/injection, schedule: Q04DX003 (ip), vehicle: saline): 110 % of control
T/C (endpoint: median survival time, dose: 21.8 mg/kg/injection, schedule: Q04DX003 (ip), vehicle: saline): 118 % of control
T/C (endpoint: median survival time, dose: 36.0 mg/kg/injection, schedule: Q04DX003 (ip), vehicle: saline): 114 % of control
T/C (endpoint: median survival time, dose: 100.0 mg/kg/injection, schedule: Q04DX003 (ip), vehicle: saline): 62 % of control

O=NN(CCCl)C(=O)NCCCl
T/C (endpoint: median survival time, dose: 12.5 mg/kg/injection, schedule: Q01DX001 (ip), vehicle: saline): 153 % of control
T/C (endpoint: median survival time, dose: 12.5 mg/kg/injection, schedule: Q01DX005 (ip), vehicle: saline): 157 % of control
T/C (endpoint: median survival time, dose: 25.0 mg/kg/injection, schedule: Q01DX001 (ip), vehicle: saline): 261 % of control
T/C (endpoint: median survival time, dose: 25.0 mg/kg/injection, schedule: Q01DX005 (ip), vehicle: saline): 265 % of control
T/C (endpoint: median survival time, dose: 50.0 mg/kg/injection, schedule: Q01DX005 (ip), vehicle: saline): 69 % of control
T/C (endpoint: survival time, mean or median, dose: 6.25 mg/kg/injection, schedule: Q01DX010 (ip), vehicle: saline): 160 % of control and 165 % of control
T/C (endpoint: survival time, mean or median, dose: 12.5 mg/kg/injection, schedule: Q01DX010 (ip), vehicle: saline): 120 % of control
T/C (endpoint: survival time, mean or median, dose: 25.0 mg/kg/injection, schedule: Q01DX010 (ip), vehicle: saline): 90 % of control

NC(CC(=O)NO)C(=O)O (configuration not stated)
T/C [3]: 100 % of control
T/C [4]: 108 % of control
T/C [5]: 108 % of control

O=c1[nH]c(=O)n(C2CC(O)C(CO)O2)cc1F (configuration not stated)
T/C (endpoint: survival time, mean or median, dose: 5.0 mg/kg/injection, schedule: Q01DX010 (ip), vehicle: saline): 104 % of control
T/C (endpoint: survival time, mean or median, dose: 10.0 mg/kg/injection, schedule: Q01DX010 (ip), vehicle: saline): 109 % of control
T/C (endpoint: survival time, mean or median, dose: 20.0 mg/kg/injection, schedule: Q01DX010 (ip), vehicle: saline): 113 % of control

NC(=O)CC(N)CO (configuration not stated)
T/C [1]: 87 % of control and 100 % of control
T/C [2]: 91 % of control and 100 % of control
T/C (endpoint: median survival time, dose: 200.0 mg/kg/injection, schedule: Q01DX009 (ip), vehicle: saline): 97 % of control and 98 % of control
T/C (endpoint: median survival time, dose: 400.0 mg/kg/injection, schedule: Q01DX009 (ip), vehicle: saline): 91 % of control and 102 % of control

NCC(=O)O
T/C (endpoint: median survival time, dose: 187.5 mg/kg/injection, schedule: Q04HX003 (ip), vehicle: saline): 86 % of control
T/C (endpoint: median survival time, dose: 375.0 mg/kg/injection, schedule: Q04HX003 (ip), vehicle: saline): 86 % of control
T/C (endpoint: median survival time, dose: 750.0 mg/kg/injection, schedule: Q04HX003 (ip), vehicle: saline): 81 % of control
T/C (endpoint: median survival time, dose: 1500.0 mg/kg/injection, schedule: Q04HX003 (ip), vehicle: saline): 75 % of control

CC/C(=C(/CC)c1ccc(O)cc1)c1ccc(O)cc1
T/C (endpoint: survival time, mean or median, dose: 12.5 mg/kg/injection, schedule: Q01DX010 (sc), vehicle: steriod suspending solution): 90 % of control
T/C (endpoint: survival time, mean or median, dose: 25.0 mg/kg/injection, schedule: Q01DX010 (sc), vehicle: steriod suspending solution): 90 % of control
T/C (endpoint: survival time, mean or median, dose: 50.0 mg/kg/injection, schedule: Q01DX010 (sc), vehicle: steriod suspending solution): 90 % of control and 95 % of control
T/C (endpoint: survival time, mean or median, dose: 100.0 mg/kg/injection, schedule: Q01DX010 (sc), vehicle: steriod suspending solution): 90 % of control

CC(=O)NC(CCC(=O)C=[N+]=N)C(=O)O (configuration not stated)
T/C (endpoint: median survival time, dose: 0.5 mg/kg/injection, schedule: Q01DX002 (ip), vehicle: saline): 100 % of control
T/C (endpoint: median survival time, dose: 0.5 mg/kg/injection, schedule: Q04DX002 (ip), vehicle: saline): 96 % of control
T/C (endpoint: median survival time, dose: 1.0 mg/kg/injection, schedule: Q01DX002 (ip), vehicle: saline): 103 % of control
T/C (endpoint: median survival time, dose: 1.0 mg/kg/injection, schedule: Q04DX002 (ip), vehicle: saline): 114 % of control
T/C (endpoint: median survival time, dose: 2.0 mg/kg/injection, schedule: Q01DX002 (ip), vehicle: saline): 106 % of control
T/C (endpoint: median survival time, dose: 2.0 mg/kg/injection, schedule: Q04DX002 (ip), vehicle: saline): 107 % of control

NC(CC(=O)O)C(=O)O (configuration not stated)
T/C [3]: 95 % of control and 100 % of control
T/C [4]: 100 % of control
T/C [5]: 100 % of control
T/C [6]: 91 % of control

O=C1NC(O)CCN1C1OC(CO)C(O)C1O (configuration not stated)
T/C (endpoint: median survival time, dose: 10.0 mg/kg/injection, schedule: Q01DX015 (ip), vehicle: saline): 102 % of control and 109 % of control
T/C (endpoint: median survival time, dose: 10.0 mg/kg/injection, schedule: Q04DX008 (ip), vehicle: saline): 100 % of control and 101 % of control
T/C (endpoint: median survival time, dose: 10.0 mg/kg/injection, schedule: Q## X015 (ip), vehicle: saline): 102 % of control and 109 % of control
T/C (endpoint: median survival time, dose: 30.0 mg/kg/injection, schedule: Q01DX015 (ip), vehicle: saline): 102 % of control and 112 % of control
T/C (endpoint: median survival time, dose: 30.0 mg/kg/injection, schedule: Q04DX008 (ip), vehicle: saline): 101 % of control (2×) and 103 % of control
T/C (endpoint: median survival time, dose: 30.0 mg/kg/injection, schedule: Q## X015 (ip), vehicle: saline): 102 % of control and 112 % of control
T/C (endpoint: median survival time, dose: 100.0 mg/kg/injection, schedule: Q01DX015 (ip), vehicle: saline): 102 % of control and 104 % of control
T/C (endpoint: median survival time, dose: 100.0 mg/kg/injection, schedule: Q04DX008 (ip), vehicle: saline): 101 % of control (2×) and 103 % of control
T/C (endpoint: median survival time, dose: 100.0 mg/kg/injection, schedule: Q## X015 (ip), vehicle: saline): 102 % of control and 104 % of control
T/C (endpoint: median survival time, dose: 300.0 mg/kg/injection, schedule: Q01DX015 (ip), vehicle: saline): 99 % of control and 101 % of control
T/C (endpoint: median survival time, dose: 300.0 mg/kg/injection, schedule: Q04DX008 (ip), vehicle: saline): 99 % of control and 102 % of control
T/C (endpoint: median survival time, dose: 300.0 mg/kg/injection, schedule: Q## X015 (ip), vehicle: saline): 99 % of control and 101 % of control
T/C (endpoint: median survival time, dose: 1000.0 mg/kg/injection, schedule: Q01DX015 (ip), vehicle: saline): 101 % of control
T/C (endpoint: median survival time, dose: 1000.0 mg/kg/injection, schedule: Q04DX008 (ip), vehicle: saline): 99 % of control and 105 % of control
T/C (endpoint: median survival time, dose: 1000.0 mg/kg/injection, schedule: Q## X015 (ip), vehicle: saline): 101 % of control

CCSCCC(N)C(=O)O (configuration not stated)
T/C (endpoint: median survival time, dose: 37.5 mg/kg/injection, schedule: Q01DX005 (ip), vehicle: saline): 107 % of control and 109 % of control
T/C (endpoint: median survival time, dose: 75.0 mg/kg/injection, schedule: Q01DX005 (ip), vehicle: saline): 100 % of control and 103 % of control
T/C (endpoint: median survival time, dose: 150.0 mg/kg/injection, schedule: Q01DX005 (ip), vehicle: saline): 81 % of control

CC[C@]1(O)C[C@H]2CN(CCc3c([nH]c4ccccc34)[C@@](C(=O)OC)(c3cc4c(cc3OC)N(C=O)[C@H]3[C@@](O)(C(=O)OC)[C@H](OC(C)=O)[C@]5(CC)C=CCN6CC[C@]43[C@@H]65)C2)C1
T/C (endpoint: median survival time, dose: 0.03 mg/kg/injection, schedule: Q01DX005 (ip), vehicle: saline): 96 % of control and 104 % of control and 109 % of control
T/C (endpoint: median survival time, dose: 0.06 mg/kg/injection, schedule: Q01DX005 (ip), vehicle: saline): 100 % of control and 103 % of control and 105 % of control
T/C (endpoint: median survival time, dose: 0.12 mg/kg/injection, schedule: Q01DX005 (ip), vehicle: saline): 115 % of control and 118 % of control
T/C (endpoint: median survival time, dose: 0.13 mg/kg/injection, schedule: Q01DX005 (ip), vehicle: saline): 116 % of control

NC(=O)CC(N)C(=O)O (configuration not stated)
T/C [3]: 91 % of control
T/C [4]: 100 % of control
T/C [5]: 100 % of control
T/C [6]: 91 % of control
